Assay results taken from patent US6093409A (Societe L'Oreal S.A., priority 1996, dated 2000).

assay: "Hp-squalene" anti(singlet oxygen ^1 O2) test; assay type: biochemical; conditions: 0.03% solutions

| Compound | % INHIBITION |
| --- | --- |
| COc1cc2c(CCNC(C)=O)c[nH]c2cc1O [6-Hydroxymelatonin] | ~78% |
| CC1=C(/C=C/C(C)=C/C=C/C(C)=C/C=C/C=C(C)/C=C/C=C(C)/C=C/C2=C(C)C(=O)[C@@H](O)CC2(C)C)C(C)(C)C[C@H](O)C1=O [Astaxanthin] | 34% |
| CC1=C(/C=C/C(C)=C/C=C/C(C)=C/C=C/C=C(C)/C=C/C=C(C)/C=C/C2=C(C)C(=O)CCC2(C)C)C(C)(C)CCC1=O [Cantaxanthin] | 67% |
| O=c1c(O)c(-c2ccc(O)c(O)c2)oc2cc(O)cc(O)c12 [Quercetin] | 72% |
| C[C@@H]1O[C@@H](OC[C@H]2O[C@@H](Oc3c(-c4ccc(O)c(O)c4)oc4cc(O)cc(O)c4c3=O)[C@H](O)[C@@H](O)[C@@H]2O)[C@H](O)[C@H](O)[C@H]1O [Rutin] | 51% |
| CC1=C(/C=C/C(C)=C/C=C/C(C)=C/C=C/C=C(C)/C=C/C=C(C)/C=C/C2=C(C)CCCC2(C)C)C(C)(C)CCC1 [β-Carotene] | 62% |

same assay, conditions: 0.03% solutions, comparison in words

| Compound | percentage of inhibition compared with melatonin and the other reference singlet-oxygen inhibitors |
| --- | --- |
| COc1cc2c(CCNC(C)=O)c[nH]c2cc1O [6-Hydroxymelatonin] | higher than that obtained for melatonin and the other reference singlet-oxygen inhibitors |
